Laboratory results from US20240092784A1, “CONDENSED HETEROCYCLIC COMPOUND” (NISSAN CHEMICAL CORPORATION, priority 2020, published 2024).

Target: human SPR (Homo sapiens (Human), UniProt P35270)
Assay: Evaluation Example 2: Measurement of human SPR inhibitory activity (seven concentrations, sepiapterin absorbance at 420 nm)
Assay type: biochemical
Conditions: Evaluation Example 2, seven concentrations 0.14 nM to 100 nM, 240 minutes at room temperature, read-out: IC50
Procedure, shortened: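 Reactions ran 240 min at room temperature in 100 mM Tris-HCl pH 7.5 with 0.01% BSA. They contained tag-cleaved, E. coli-expressed full-length human SPR (diluted to 150 ng/mL), seven compound concentrations from 0.14 to 100 nM, and sepiapterin/NADPH added as a 120 μM/160 μM solution. Inhibition was calculated from sepiapterin absorbance at 420 nm.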

human SPR, sequence (P35270 whole entry): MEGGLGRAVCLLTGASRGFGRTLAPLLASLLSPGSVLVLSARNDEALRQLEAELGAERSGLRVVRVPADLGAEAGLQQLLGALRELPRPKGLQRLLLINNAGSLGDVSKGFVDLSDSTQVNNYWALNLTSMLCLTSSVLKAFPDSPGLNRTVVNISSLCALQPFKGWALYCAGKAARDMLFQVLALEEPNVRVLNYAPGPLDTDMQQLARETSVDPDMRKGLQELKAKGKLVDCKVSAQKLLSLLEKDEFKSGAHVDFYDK

SMILES	IC50
CC(C)Cn1c(=O)c(C(=O)NC2CC2)c(O)n2ncc(/C=C/C(=O)N3CCC[C@@H]3C(F)(F)F)c12 [compound 485, (R,E)-N-Cyclopropyl-7-hydroxy-4-isobutyl-5-oxo-3-(3-oxo-3-(2-(trifluoromethyl)pyrrolidine-1-yl)prop-1-en-1-yl)-4,5-dihydropyrazolo[1,5-a]pyrimidine-6-carboxamide]	1.1 nM
CC(C)Cn1c(=O)c(C(=O)NC2CC2)c(O)n2ncc(/C=C/C(=O)N3CCC[C@H]3C(N)=O)c12 [compound 486, (S,E)-3-(3-(2-Carbamoylpyrrolidin-1-yl)-3-oxoprop-1-en-1-yl)-N-cyclopropyl-7-hydroxy-4-isobutyl-5-oxo-4,5-dihydropyrazolo[1,5-a]pyrimidine-6-carboxamide]	0.92 nM
CC(C)Cn1c(=O)c(C(=O)NC2CC2)c(O)n2ncc(/C=C/C(=O)N3CCC[C@@H]3C(N)=O)c12 [compound 487, (R,E)-3-(3-(2-Carbamoylpyrrolidin-1-yl)-3-oxoprop-1-en-1-yl)-N-cyclopropyl-7-hydroxy-4-isobutyl-5-oxo-4,5-dihydropyrazolo[1,5-a]pyrimidine-6-carboxamide]	0.97 nM
CC(C)Cn1c(=O)c(C(=O)NC2CC2)c(O)n2ncc(/C=C/C(=O)N3CCC(S(C)(=O)=O)CC3)c12 [compound 488]	0.87 nM
CC(C)Cn1c(=O)c(C(=O)NC2CC2)c(O)n2ncc(/C=C/C(=O)N3CCOC(C)(C)C3)c12 [compound 489, (E)-N-Cyclopropyl-3-(3-(2,2-dimethylmorpholino)-3-oxoprop-1-en-1-yl)-7-hydroxy-4-isobutyl-5-oxo-4,5-dihydropyrazolo[1,5-a]pyrimidine-6-carboxamide]	0.93 nM
CC(C)Cn1c(=O)c(C(=O)NC2CC2)c(O)n2ncc(/C=C/C(=O)N3C[C@H](C)O[C@@H](C)C3)c12 [compound 490, N-Cyclopropyl-3-((E)-3-((2S,6S)-2,6-dimethylmorpholino)-3-oxoprop-1-en-1-yl)-7-hydroxy-4-isobutyl-5-oxo-4,5-dihydropyrazolo[1,5-a]pyrimidine-6-carboxamide]	0.88 nM
CC(C)Cn1c(=O)c(C(=O)NC2CC2)c(O)n2ncc(/C=C/C(=O)N3C[C@@H](C)O[C@H](C)C3)c12 [compound 491]	0.82 nM
CC(C)Cn1c(=O)c(C(=O)NC2CC2)c(O)n2ncc(/C=C/C(=O)NC3(C)CCOCC3)c12 [compound 492, (E)-N-Cyclopropyl-7-hydroxy-4-isobutyl-3-(3-((4-methyltetrahydro-2H-pyran-4-yl)amino)-3-oxoprop-1-en-1-yl)-5-oxo-4,5-dihydropyrazolo[1,5-a]pyrimidine-6-carboxamide]	0.89 nM
CC(C)Cn1c(=O)c(C(=O)NC2CC2)c(O)n2ncc(/C=C/C(=O)NC(C)(C)C3CC3)c12 [compound 493]	0.94 nM
CC(C)Cn1c(=O)c(C(=O)NC2CC2)c(O)n2ncc(/C=C/C(=O)N3CCOC[C@H]3C)c12 [compound 494, (R,E)-N-Cyclopropyl-7-hydroxy-4-isobutyl-3-(3-(3-methylmorpholino)-3-oxoprop-1-en-1-yl)-5-oxo-4,5-dihydropyrazolo[1,5-a]pyrimidine-6-carboxamide]	0.73 nM
CC(C)Cn1c(=O)c(C(=O)NC2CC2)c(O)n2ncc(/C=C/C(=O)N3CCC[C@H]3C#N)c12 [compound 495, (S,E)-3-(3-(2-Cyanopyrrolidin-1-yl)-3-oxoprop-1-en-1-yl)-N-cyclopropyl-7-hydroxy-4-isobutyl-5-oxo-4,5-dihydropyrazolo[1,5-a]pyrimidine-6-carboxamide]	0.91 nM
CC(C)Cn1c(=O)c(C(=O)NC2CC2)c(O)n2ncc(/C=C/C(=O)N3CCC[C@@H]3C#N)c12 [compound 496, (R,E)-3-(3-(2-Cyanopyrrolidin-1-yl)-3-oxoprop-1-en-1-yl)-N-cyclopropyl-7-hydroxy-4-isobutyl-5-oxo-4,5-dihydropyrazolo[1,5-a]pyrimidine-6-carboxamide]	0.75 nM
CC(C)Cn1c(=O)c(C(=O)NC2CC2)c(O)n2ncc(/C=C/C(=O)N(C)C3CC3)c12 [compound 497, (E)-N-Cyclopropyl-3-(3-(cyclopropyl(methyl)amino)-3-oxoprop-1-en-1-yl)-7-hydroxy-4-isobutyl-5-oxo-4,5-dihydropyrazolo[1,5-a]pyrimidine-6-carboxamide]	0.59 nM
CC(C)Cn1c(=O)c(C(=O)NC2CC2)c(O)n2ncc(/C=C/C(=O)N(C)CC#N)c12 [compound 498, (E)-3-(3-((Cyanomethyl)(methyl)amino)-3-oxoprop-1-en-1-yl)-N-cyclopropyl-7-hydroxy-4-isobutyl-5-oxo-4,5-dihydropyrazolo[1,5-a]pyrimidine-6-carboxamide]	0.72 nM
CC(C)Cn1c(=O)c(C(=O)NC2CC2)c(O)n2ncc(/C=C/C(=O)N(C)CC3CCOCC3)c12 [compound 499, (E)-N-Cyclopropyl-7-hydroxy-4-isobutyl-3-(3-(methyl((tetrahydro-2H-pyran-4-yl)methyl)amino)-3-oxoprop-1-en-1-yl)-5-oxo-4,5-dihydropyrazolo[1,5-a]pyrimidine-6-carboxamide]	0.74 nM
CC(C)Cn1c(=O)c(C(=O)NC2CC2)c(O)n2ncc(/C=C/C(=O)N3CC[C@H](O)C3)c12 [compound 501, (S,E)-N-Cyclopropyl-7-hydroxy-3-(3-(3-hydroxypyrrolidin-1-yl)-3-oxoprop-1-en-1-yl)-4-isobutyl-5-oxo-4,5-dihydropyrazolo[1,5-a]pyrimidine-6-carboxamide]	0.71 nM
CC(C)Cn1c(=O)c(C(=O)NC2CC2)c(O)n2ncc(/C=C/C(=O)N3CC[C@@H](O)C3)c12 [compound 502, (R,E)-N-Cyclopropyl-7-hydroxy-3-(3-(3-hydroxypyrrolidin-1-yl)-3-oxoprop-1-en-1-yl)-4-isobutyl-5-oxo-4,5-dihydropyrazolo[1,5-a]pyrimidine-6-carboxamide]	0.7 nM
CC(C)Cn1c(=O)c(C(=O)NC2CC2)c(O)n2ncc(/C=C/C(=O)N(C)C(C)C)c12 [compound 503, (E)-N-Cyclopropyl-7-hydroxy-4-isobutyl-3-(3-(isopropyl(methyl)amino)-3-oxoprop-1-en-1-yl)-5-oxo-4,5-dihydropyrazolo[1,5-a]pyrimidine-6-carboxamide]	0.8 nM
CCN(CC)C(=O)/C=C/c1cnn2c(O)c(C(=O)NC3CC3)c(=O)n(CC(C)C)c12 [compound 504, (E)-N-Cyclopropyl-3-(3-(diethylamino)-3-oxoprop-1-en-1-yl)-7-hydroxy-4-isobutyl-5-oxo-4,5-dihydropyrazolo[1,5-a]pyrimidine-6-carboxamide]	0.84 nM
CC(C)Cn1c(=O)c(C(=O)NC2CC2)c(O)n2ncc(/C=C/C(=O)N3CCN(CC(F)(F)C(F)(F)F)CC3)c12 [compound 505, (E)-N-Cyclopropyl-7-hydroxy-4-isobutyl-5-oxo-3-(3-oxo-3-(4-(2,2,3,3,3-pentafluoropropyl)piperazin-1-yl)prop-1-en-1-yl)-4,5-dihydropyrazolo[1,5-a]pyrimidine-6-carboxamide]	1.89 nM
CC(C)Cn1c(=O)c(C(=O)NC2CC2)c(O)n2ncc(/C=C/C(=O)N3CCN(CC(F)(F)F)CC3)c12 [compound 506, (E)-N-Cyclopropyl-7-hydroxy-4-isobutyl-5-oxo-3-(3-oxo-3-(4-(2,2,2-trifluoroethyl)piperazin-1-yl)prop-1-en-1-yl)-4,5-dihydropyrazolo[1,5-a]pyrimidine-6-carboxamide]	0.8 nM
